Source: patent publication US6509401B1, “Synergistic flame retardant combination of salts of 1-hydroxy-dihydrophosphole oxides and/or 1-hydroxyphospholane oxides and nitrogen compounds for use in polymers” (Clariant GmbH, priority 1997, dated 2003)

Assay: Comparison of water solubilities at 20° C.
Type: physicochemical
Method: Comparison of Water Solubilities at 20° C.

Compound	Water solubility [µg/mL]
O=P1([O-])CCCC1.O=P1([O-])CCCC1.O=P1([O-])CCCC1.[Al+3] [PHOLAL, Aluminum salt of 1-hydroxy-1H-phospholane 1-oxide]	4300
CCP(C)(=O)[O-].CCP(C)(=O)[O-].CCP(C)(=O)[O-].[Al+3] [MEPAL, Aluminum salt of methylethylphosphinic acid]	6300
